According to patent US20030195350A1, “Individualization of therapy with antiviral agents” (priority 2001, published 2003):
Read-outs that look alike come from different tables or passages of the source. Marks after values point to notes of the source that are not given here.

What was measured:
[1] = cited from earlier work
1X-Ab = experiment: Competitive antigen ELISA, cross-reactivity of 1X-Ab; format: binding, rabbit; conditions: 0 = absence of inhibition or inhibition no higher than 40% at 5 × 10^−3 M
Experimental: (§1) Buffers and water without additives are filtered through millipore filters and kept for 1 week. BSA, antibodies, Tween™ 20 and horse radish peroxidase conjugates are added to these buffers and water just prior to use. Urine samples are usually collected 4 hours after drinking a cup of coffee (instant or brewed with approximately 100 mg of caffeine per cup) and stored at −80° C. The urine samples are diluted 10 times with sodium phosphate buffer (620 mosm, pH 7.50) and are subsequently diluted with water to give concentrations of AAMU and 1X no higher than 3×10^−6 M in the ELISA. All the pipettings are done with an eight-channel pipette, except those of the antibody and sample solutions. Starting with the last well, 100 μL of a carbonate buffer (100 mM, pH 9.6) containing 2.5 μg mL^−1 antibodies are added to each well. After 90 min. at room temperature, the wells are washed three times with […] of TPB: isotonic sodium phosphate buffer (310 mosm, pH 7.50) containing 0.05% Tween™ 20.
(§2) After the initial wash, unoccupied sites are blocked by incubation for 90 min. at room temperature with 100 μL TBP containing 3% BSA. The wells are washed four times with 100 μL TPB. […] The microplate is gently shaken with an orbital shaker at room temperature for 3-4 hours. The wells are washed three times with 100 μL TPB containing 1% BSA and three times with water containing 0.05% Tween™ 20. To the washed plate is added 150 μL of a substrate buffer composed of citric acid (25 mM) and sodium phosphate dibasic buffer (50 mM, pH 5.0) containing 0.06% hydrogen peroxide and 0.04% o-phenylenediamine hydrochloride.
(§3) Buffers and water without additives were filtered through millipore filters and kept for 1 week. BSA, antibodies, Tween™ 20 and horse radish peroxidase conjugates were added to these buffers and water just prior to use. Urine samples were usually collected 4 hours after drinking a cup of coffee (instant or brewed with approximately 100 mg of caffeine per cup) and stored at −80° C. They were diluted 10 times with sodium phosphate buffer (620 mosm, pH 7.50) and were subsequently diluted with water to give concentrations of AAMU and 1X no higher than 3×10^−6 M in the ELISA. All the pipettings were done with an eight-channel pipette, except those of the antibody and sample solutions. Starting with the last well, 100 μL of a carbonate buffer (100 mM, pH 9.6) containing 2.5 μg mL^−1 antibodies was pipetted. After 90 min. at room temperature, the wells were washed three times with 100 μL of TPB: isotonic sodium phosphate buffer (310 mosm, pH 7.50) containing 0.05% Tween™ 20.
(§4) After the initial wash, unoccupied sites were blocked by incubation for 90 min. at room temperature with 100 μL TBP containing 3% BSA. The wells were washed four times with 100 μL TPB. […] The microplate was gently shaken with an orbital shaker at room temperature for 3-4 hours. The wells were washed three times with 100 μL with TPB containing 1% BSA and three times with water containing 0.05% Tween™ 20. To the washed plate was added 150 μL of a substrate buffer composed of citric acid (25 mM) and sodium phosphate dibasic buffer (50 mM, pH 5.0) containing 0.06% hydrogen peroxide and 0.04% o-phenylenediamine hydrochloride. After 20 min. at room temperature with shaking, the reaction was stopped with 50 μL of 2.5 N HCl.
(§5) The cross reactivities of AAMU-Ab and 1X-Ab were tested using a wide variety of caffeine metabolites and structural analogs (Table 3 below).

AAMU-Ab = experiment: Competitive antigen ELISA, cross-reactivity of AAMU-Ab; format: binding, rabbit; conditions: 0 = absence of inhibition or inhibition no higher than 40% at 5 × 10^−3 M
Experimental: as §1, §2, §3, §4, §5

HIV isolates = HIV isolates from individuals during ritonavir therapy vs matched baseline isolates; cited from earlier work
[2] = co-administration with ritonavir; cited from earlier work
[3] = in vivo; cited from earlier work
[4] = in vivo; cited from earlier work; remark: listed apart in the source

Q: With `COc1ccc2c(c1)[C@]13CCCC[C@@H]1[C@H](C2)N(C)CC3` [Dextromethorphan] as the compound, how does the “mean performance+/−SE” value ([1]; EMs (extensive metabolizers)) read?
A: 95+/−0.5%

Q: And the “mean performance+/−SE” value ([1]; PMs (poor metabolizers))?
A: 86+/−6%

Q: With `O=c1[nH]c(=O)c2[nH]c(=O)[nH]c2[nH]1` [Uric acid] as the compound, how does the “% Cross-Reaction 1X-Ab” value (1X-Ab) read?
A: 0%

Q: What about the “% Cross-Reaction AAMU-Ab” value (AAMU-Ab) of the same compound?
A: 0%

Q: What does the source list for `O=c1[nH]cnc2nc[nH]c12` [Hypoxanthine]?
A: % Cross-Reaction 1X-Ab (1X-Ab): 0%; % Cross-Reaction AAMU-Ab (AAMU-Ab): 0%

Q: What does the source list for `CC(=O)Nc1c(N)n(C)c(=O)[nH]c1=O` [5-Acetamino-6-amino-1-methyluracil]?
A: % Cross-Reaction 1X-Ab (1X-Ab): 0%; % Cross-Reaction AAMU-Ab (AAMU-Ab): 100%

Q: Which “% Cross-Reaction 1X-Ab” value (1X-Ab) does the source give for `Cn1c(=O)[nH]c(=O)c2[nH]cnc21` [3-Methyl Xanthine] here?
A: 0%

Q: And the “% Cross-Reaction AAMU-Ab” value (AAMU-Ab)?
A: 0%

Q: Which “% Cross-Reaction 1X-Ab” value (1X-Ab) does the source give for `Nc1nc2nc[nH]c2c(=O)[nH]1` [Guanine] here?
A: 0%

Q: What about the “% Cross-Reaction AAMU-Ab” value (AAMU-Ab) of the same compound?
A: 0%

Q: Which results are given for `Cn1c(=O)[nH]c2[nH]c(=O)[nH]c2c1=O` [1-Methyluric acid]?
A: % Cross-Reaction 1X-Ab (1X-Ab): 11%; % Cross-Reaction AAMU-Ab (AAMU-Ab): 0%

Q: For `CC(C)CN(C[C@@H](O)[C@H](Cc1ccccc1)NC(=O)O[C@H]1CCOC1)S(=O)(=O)c1ccc(N)cc1` [amprenavir], which “decrease in susceptibility in vitro” value (HIV isolates) is on record?
A: none

Q: For `Cn1c(=O)[nH]c2[nH]c(=O)n(C)c2c1=O` [1,7-Dimethyluric acid], which “% Cross-Reaction 1X-Ab” value (1X-Ab) is on record?
A: 0%

Q: What about the “% Cross-Reaction AAMU-Ab” value (AAMU-Ab) of the same compound?
A: 0%

Q: Which “Effect (on drug concentration)” value [2] does the source give for `CCOC(=O)C1(c2ccccc2)CCNCC1` [normeperidine] here?
A: up normeperidine

Q: What does the source list for `O=c1[nH]c(=O)c2[nH]cnc2[nH]1` [Xanthine]?
A: % Cross-Reaction 1X-Ab (1X-Ab): 0%; % Cross-Reaction AAMU-Ab (AAMU-Ab): 0^a %

Q: With `Cn1cnc2[nH]c(=O)[nH]c(=O)c21` [7-Methyl Xanthine] as the compound, how does the “% Cross-Reaction 1X-Ab” value (1X-Ab) read?
A: 0%

Q: What about the “% Cross-Reaction AAMU-Ab” value (AAMU-Ab) of the same compound?
A: 0%

Q: Which “% Cross-Reaction 1X-Ab” value (1X-Ab) does the source give for `CC(=O)Nc1c(N)[nH]c(=O)[nH]c1=O` [5-Acetamino-6-amino-uracil] here?
A: 0%

Q: What about the “% Cross-Reaction AAMU-Ab” value (AAMU-Ab) of the same compound?
A: 0.6%

Q: With `Cn1c(=O)[nH]c2nc[nH]c2c1=O` [1-Methyl Xanthine (1X), 1-Methyl Xanthine] as the compound, how does the “% Cross-Reaction 1X-Ab” value (1X-Ab) read?
A: 100%

Q: What about the “% Cross-Reaction AAMU-Ab” value (AAMU-Ab) of the same compound?
A: 0%

Q: With `CCC(=O)C(CC(C)N(C)C)(c1ccccc1)c1ccccc1` (stereo not shown) [Methadone] as the compound, how does the “Effect (on drug concentration)” value [2] read?
A: down methadone

Q: For `CC(=O)N1CCN(c2ccc(OCC3COC(Cn4ccnc4)(c4ccc(Cl)cc4Cl)O3)cc2)CC1` (stereo not shown) [Ketoconazole], which “Effect (on drug concentration)” value [2] is on record?
A: up ketoconazole

Q: With `Cn1c(=O)[nH]c2ncn(C)c2c1=O` [1,7-Dimethyl Xanthine (Paraxanthine), 1,7-Dimethyl Xanthine] as the compound, how does the “% Cross-Reaction 1X-Ab” value (1X-Ab) read?
A: 0.5%

Q: And the “% Cross-Reaction AAMU-Ab” value (AAMU-Ab)?
A: 0%

Q: For `CC(C)[C@H](NC(=O)N(C)Cc1csc(C(C)(C)O)n1)C(=O)N[C@@H](Cc1ccccc1)C[C@H](O)[C@H](Cc1ccccc1)NC(=O)OCc1cncs1` [Compound M-2], which “concentrations of metabolite in plasma” value [3] is on record?
A: low

Q: For `Cc1nc2[nH]c(=O)[nH]c(=O)c2[nH]1` [8-Methyl Xanthine], which “% Cross-Reaction 1X-Ab” value (1X-Ab) is on record?
A: 0%

Q: What about the “% Cross-Reaction AAMU-Ab” value (AAMU-Ab) of the same compound?
A: 0%

Q: What does the source list for `Cn1cnc2c1c(=O)[nH]c(=O)n2C` [3,7-Dimethyl Xanthine (Theobromine), 3,7-Dimethyl Xanthine]?
A: % Cross-Reaction 1X-Ab (1X-Ab): 0%; % Cross-Reaction AAMU-Ab (AAMU-Ab): 0%

Q: What does the source list for `Cn1c(=O)c2c(ncn2C)n(C)c1=O` [1,3,7-Trimethyl Xanthine (Caffeine), 1,3,7-Trimethyl Xanthine]?
A: % Cross-Reaction 1X-Ab (1X-Ab): 0%; % Cross-Reaction AAMU-Ab (AAMU-Ab): 0%

Q: With `CC(C)(C)NC(=O)[C@@H]1CN(Cc2cccnc2)CCN1C[C@@H](O)C[C@@H](Cc1ccccc1)C(=O)N[C@H]1c2ccccc2C[C@H]1O` [Indinavir, indinavir] as the compound, how does the “decrease in susceptibility in vitro” value (HIV isolates) read?
A: 8 fold

Q: With `Cn1c(=O)c2[nH]cnc2n(C)c1=O` [1,3-Dimethyl Xanthine (Theophylline), 1,3-Dimethyl Xanthine] as the compound, how does the “Effect (on drug concentration)” value [2] read?
A: down theophylline

Q: What about the “% Cross-Reaction 1X-Ab” value (1X-Ab) of the same compound?
A: 0.2%

Q: And the “% Cross-Reaction AAMU-Ab” value (AAMU-Ab)?
A: 0%

Q: For `Cc1cn([C@H]2C[C@H](N=[N+]=[N-])[C@@H](CO)O2)c(=O)[nH]c1=O` [ZDV, zidovudine], which “Adverse event: Abdominal Pain” value [4] is on record?
A: 5.9%

Q: And the “Adverse event: Anorexia” value [4]?
A: 4.2%

Q: And the “Adverse event: Anxiety” value [4]?
A: 0.8%

Q: What about the “Adverse event: Arthralgia” value [4] of the same compound?
A: 0.0%

Q: What about the “Adverse event: Asthenia” value [4] of the same compound?
A: 11.8%

Q: What about the “Adverse event: Circumoral Paresthesia” value [4] of the same compound?
A: 0.0%

Q: What about the “Adverse event: Confusion” value [4] of the same compound?
A: 0.0%

Q: And the “Adverse event: Constipation” value [4]?
A: 0.8%

Q: What about the “Adverse event: Depression” value [4] of the same compound?
A: 2.5%

Q: What about the “Adverse event: Diarrhea” value [4] of the same compound?
A: 2.5%

Q: What about the “Adverse event: Dizziness” value [4] of the same compound?
A: 3.4%

Q: And the “Adverse event: Dyspepsia” value [4]?
A: 1.7%

Q: And the “Adverse event: Fecal Incontinence” value [4]?
A: 0.0%

Q: What about the “Adverse event: Fever” value [4] of the same compound?
A: 1.7%

Q: And the “Adverse event: Flatulence” value [4]?
A: 1.7%

Q: What about the “Adverse event: Headache” value [4] of the same compound?
A: 6.7%

Q: What about the “Adverse event: Insomnia” value [4] of the same compound?
A: 0.8%

Q: And the “Adverse event: Local Throat Irritation” value [4]?
A: 0.8%

Q: What about the “Adverse event: Malaise” value [4] of the same compound?
A: 3.4%

Q: And the “Adverse event: Myalgia” value [4]?
A: 0.8%

Q: And the “Adverse event: Nausea” value [4]?
A: 26.1%

Q: And the “Adverse event: Nocturia” value [4]?
A: 0.0%

Q: What about the “Adverse event: Pain (unspecified)” value [4] of the same compound?
A: 0.8%

Q: What about the “Adverse event: Paresthesia” value [4] of the same compound?
A: 0.0%

Q: And the “Adverse event: Peripheral Paresthesia” value [4]?
A: 0.8%

Q: And the “Adverse event: Pharyngitis” value [4]?
A: 0.0%

Q: And the “Adverse event: Rash” value [4]?
A: 0.8%

Q: And the “Adverse event: Somnolence” value [4]?
A: 0.0%

Q: And the “Adverse event: Sweating” value [4]?
A: 1.7%

Q: And the “Adverse event: Syncope” value [4]?
A: 0.8%

Q: And the “Adverse event: Taste Perversion” value [4]?
A: 8.4%

Q: What about the “Adverse event: Thinking Abnormal” value [4] of the same compound?
A: 0.8%

Q: And the “Adverse event: Vasodilation” value [4]?
A: 0.8%

Q: And the “Adverse event: Vomiting” value [4]?
A: 12.6%

Q: What about the “Adverse event: Weight Loss” value [4] of the same compound?
A: 0.0%

Q: Which “Effect (on drug concentration)” value [2] does the source give for `CCOC(=O)C1(c2ccccc2)CCN(C)CC1` [Meperidine] here?
A: down meperidine

Q: Which “% Cross-Reaction 1X-Ab” value (1X-Ab) does the source give for `CC(=O)Nc1c(N)n(C)c(=O)n(C)c1=O` [5-Acetamino-6-amino-1,3-dimethyluracil] here?
A: 0%

Q: And the “% Cross-Reaction AAMU-Ab” value (AAMU-Ab)?
A: 0%

Q: With `CC(C)(C)NC(=O)[C@@H]1C[C@@H]2CCCC[C@@H]2CN1C[C@@H](O)[C@H](Cc1ccccc1)NC(=O)[C@H](CC(N)=O)NC(=O)c1ccc2ccccc2n1` [Saquinavir, saquinavir] as the compound, how does the “decrease in susceptibility in vitro” value (HIV isolates) read?
A: did not demonstrate a concordant decrease in susceptibility

Q: For `O=c1cc[nH]c(=O)[nH]1` [Uracil], which “% Cross-Reaction 1X-Ab” value (1X-Ab) is on record?
A: 0%

Q: And the “% Cross-Reaction AAMU-Ab” value (AAMU-Ab)?
A: 0%
